Laboratory results published in patent US20100021918A1, “METHOD FOR ASSAYING ACTION OF ANTITUMOR AGENT USING SPLICING DEFECTS AS INDEX” (Eisai R&D Management Co., Ltd., priority 2007, published 2010).

Tested on: peripheral blood mononuclear cells (PBMC)
Test: qPCR of precursor gene (pre-mRNA) expression in PBMC, Table 2
Type: cell-based, human
Conditions: three hours
Excerpt: Since it is not easy to obtain a cancer tissue clinically, the measurement of the marker in hemocytes readily obtainable in peripheral blood would be more useful. It was then examined whether the marker gene obtained in cancer cells could change in peripheral blood mononuclear cells in a similar manner as observed in the cancer cells. Specifically peripheral blood was taken from three normal individuals (volunteers) and peripheral blood mononuclear cells were purified and treated with (8E,12E,14E)-7-((4-cycloheptylpiperazin-1-yl)carbonyl)oxy-3,6,16,21-tetrahydroxy-6,10,12,16,20-pentamethyl-18,19-epoxytricosa-8,12,14-trien-11-olide for three hours, followed by measurement of change in expression of the precursor gene (pre-mRNA) by qPCR.
Ficoll-Paque PLUS solution (Amersham, 17-1440-02) was slowly added to the blood taken (with heparin added) from healthy individuals to form a layer underneath the blood (15 mL of Ficoll-Paque PLUS solution was added to 25 mL of blood). After the mixture was centrifuged at 1500 rpm for 30 min, the upper part containing platelets was removed and then a layer containing mononuclear cells was transferred to another tube. The cells were suspended in PBS and centrifuged at 1500 rpm for 5 min, followed by removal of the supernatant. After these steps were repeated twice, the PBMC was suspended in RPMI1640 (containing 10% FBS, penicillin, and streptomycin) and the number of the cells was then counted.
PBMC was suspended in RPMI1640 medium (containing 10% FBS, penicillin, and streptomycin) to 5×10^6 cells/ml and 1 ml of the suspension was plated per well of a 24-well plate. Immediately, 111 μl of 10 times-concentrated (8E,12E,14E)-7-((4-cycloheptylpiperazin-1-yl)carbonyl)oxy-3,6,16,21-tetrahydroxy-6,10,12,16,20-pentamethyl-18,19-epoxytricosa-8,12,14-trien-11-olide was added to the well (six wells per each concentration tested). The cells were then cultured in an incubator with 5% carbon dioxide gas at 37° C. Three hours later, the supernatant was collected and centrifuged at 1500 rpm for five minutes. TRI reagent (SIGMA) (1 ml) was added to each well of the plate from which the supernatant was removed to harvest the cells, which was added to the centrifuged pellet to dissolve. RNA was purified in accordance with the protocol of TRI reagent. RNA was further purified using RNeasy (QIAGEN) and, in accordance with the protocol, DNaseI was added to the samples during the procedure. Absorbance at 260 nm was measured to quantify an amount of RNA.
RNA was prepared to 30 ng/μl and cDNA was synthesized using TaqMan Reverse Transcription Reagents (Applied Biosystems). For the expression level of pre-mRNA of ID1, amplification was carried out by using TaqMan Universal PCR Master Mix (Applied Biosystems) with TaqMan Gene Expression Assays (Hs00704053_s1, Applied Biosystems) as a probe. For the expression level of pre-mRNA of DNAJB1, BZW1, NUP54, RIOK3, CDKN1B, STK17B, ADRM1, EIF4A1, FOXK2, GNB2L1, HSPA9B, HSPH1, KLHL18 and VIL2, reagents were prepared in accordance with each protocol by using POWER SYBR GREEN PCR MASTER MIX (Applied Biosystems) and primers with the sequence below (Invitrogen), and the expression level was measured with ABI7900 (Applied Biosystems). 18S rRNA was measured by both the TaqMan and SYBR methods. The expression level of 18S r RNA was measured with Hs99999901_s1 (Applied Biosystems) as primers for TaqMan and with 18S primers included in TaqMan Ribosomal RNA control reagents (4308329: Applied Biosystems) as primers for SYBR. Measured values were corrected using the expression level of 18S rRNA as an internal control. The expression level of each gene was calculated with the expression level in the cells treated without (8E,12E,14E)-7-((4-cycloheptylpiperazin-1-yl)carbonyl)oxy-3,6,16,21-tetrahydroxy-6,10,12,16,20-pentamethyl-18,19-epoxytricosa-8,12,14-trien-11-olide as 1.

## CCC(O)C(C)C1OC1CC(C)(O)/C=C/C=C(\C)C1OC(=O)CC(O)CCC(C)(O)C(OC(=O)N2CCN(C3CCCCCC3)CC2)/C=C/C1C (stereo not drawn) [E7107, (8E,12E,14E)-7-((4-cycloheptylpiperazin-1-yl)carbonyl)oxy-3,6,16,21-tetrahydroxy-6,10,12,16,20-pentamethyl-18,19-epoxytricosa-8,12,14-trien-11-olide]
E7107 3 nM
  expression level of pre-mRNA of ADRM1 (untreated cells as 1): 1.8
  expression level of pre-mRNA of BZW1 (untreated cells as 1): 1.72
  expression level of pre-mRNA of CDKN1B (untreated cells as 1): 1.27
  expression level of pre-mRNA of DNAJB1 (untreated cells as 1): 2.25
  expression level of pre-mRNA of EIF4A1 (untreated cells as 1): 2.17
  expression level of pre-mRNA of FOXK2 (untreated cells as 1): 2.1
  expression level of pre-mRNA of GNB2L1 (untreated cells as 1): 2.47
  expression level of pre-mRNA of HSPA9 (untreated cells as 1): 1.87
  expression level of pre-mRNA of HSPH1 (untreated cells as 1): 1.26
  expression level of pre-mRNA of ID1 (untreated cells as 1): 3.31
  expression level of pre-mRNA of KLHL18 (untreated cells as 1): 2.36
  expression level of pre-mRNA of NUP54 (untreated cells as 1): 2.31
  expression level of pre-mRNA of RIOK3 (untreated cells as 1): 2.59
  expression level of pre-mRNA of STK17B (untreated cells as 1): 1.94
  expression level of pre-mRNA of VIL2 (untreated cells as 1): 1.27
E7107 10 nM
  expression level of pre-mRNA of ADRM1 (untreated cells as 1): 2.68
  expression level of pre-mRNA of BZW1 (untreated cells as 1): 2.34
  expression level of pre-mRNA of CDKN1B (untreated cells as 1): 2.35
  expression level of pre-mRNA of DNAJB1 (untreated cells as 1): 4.46
  expression level of pre-mRNA of EIF4A1 (untreated cells as 1): 3.64
  expression level of pre-mRNA of FOXK2 (untreated cells as 1): 2.68
  expression level of pre-mRNA of GNB2L1 (untreated cells as 1): 2.74
  expression level of pre-mRNA of HSPA9 (untreated cells as 1): 3.45
  expression level of pre-mRNA of HSPH1 (untreated cells as 1): 1.88
  expression level of pre-mRNA of ID1 (untreated cells as 1): 6
  expression level of pre-mRNA of KLHL18 (untreated cells as 1): 2.97
  expression level of pre-mRNA of NUP54 (untreated cells as 1): 2.46
  expression level of pre-mRNA of RIOK3 (untreated cells as 1): 3.57
  expression level of pre-mRNA of STK17B (untreated cells as 1): 3.44
  expression level of pre-mRNA of VIL2 (untreated cells as 1): 2.87
E7107 30 nM
  expression level of pre-mRNA of ADRM1 (untreated cells as 1): 2.59
  expression level of pre-mRNA of BZW1 (untreated cells as 1): 3.26
  expression level of pre-mRNA of CDKN1B (untreated cells as 1): 4.9
  expression level of pre-mRNA of DNAJB1 (untreated cells as 1): 7.42
  expression level of pre-mRNA of EIF4A1 (untreated cells as 1): 4.36
  expression level of pre-mRNA of FOXK2 (untreated cells as 1): 2.31
  expression level of pre-mRNA of GNB2L1 (untreated cells as 1): 2.23
  expression level of pre-mRNA of HSPA9 (untreated cells as 1): 2.33
  expression level of pre-mRNA of HSPH1 (untreated cells as 1): 2.68
  expression level of pre-mRNA of ID1 (untreated cells as 1): 10.57
  expression level of pre-mRNA of KLHL18 (untreated cells as 1): 2.6
  expression level of pre-mRNA of NUP54 (untreated cells as 1): 1.93
  expression level of pre-mRNA of RIOK3 (untreated cells as 1): 2.89
  expression level of pre-mRNA of STK17B (untreated cells as 1): 3.99
  expression level of pre-mRNA of VIL2 (untreated cells as 1): 4.89
